Laboratory results taken from the supplement of paper PMC11451515.

Test system: SEM cells
Assay: cell viability relative to DMSO control; higher = less cytotoxic
Details: 48 h
Outline: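 Leukemia cells (NOMO1 or SEM, 500 cells/well; P12-Ichikawa, 1000 cells/well) were seeded in 5 μl in 1536-well plates after at least four passages of adaptation to each medium. They received library compounds in DMSO by pin dosing, 11 threefold points from 47 μM to 0.79 nM. Luminescence with CellTiter-Glo One was read after 48 h at 37°C. Viability is stated per plate relative to DMSO wells, with cell-free wells as background.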

[1] = HPLM + 10% dialyzed FBS, 0.000781 µM
[2] = HPLM + 10% dialyzed FBS, 0.00234 µM
[3] = HPLM + 10% dialyzed FBS, 0.00702 µM
[4] = HPLM + 10% dialyzed FBS, 0.0211 µM
[5] = HPLM + 10% dialyzed FBS, 0.0632 µM
[6] = HPLM + 10% dialyzed FBS, 0.19 µM
[7] = HPLM + 10% dialyzed FBS, 0.569 µM
[8] = HPLM + 10% dialyzed FBS, 1.71 µM
[9] = HPLM + 10% dialyzed FBS, 5.12 µM
[10] = HPLM + 10% dialyzed FBS, 15.4 µM
[11] = HPLM + 10% dialyzed FBS, 46.1 µM
[12] = RPMI 5 mM glucose + 10% FBS, 0.000781 µM
[13] = RPMI 5 mM glucose + 10% FBS, 0.00234 µM
[14] = RPMI 5 mM glucose + 10% FBS, 0.00702 µM
[15] = RPMI 5 mM glucose + 10% FBS, 0.0211 µM
[16] = RPMI 5 mM glucose + 10% FBS, 0.0632 µM
[17] = RPMI 5 mM glucose + 10% FBS, 0.19 µM
[18] = RPMI 5 mM glucose + 10% FBS, 0.569 µM
[19] = RPMI 5 mM glucose + 10% FBS, 1.71 µM
[20] = RPMI 5 mM glucose + 10% FBS, 5.12 µM
[21] = RPMI 5 mM glucose + 10% FBS, 15.4 µM
[22] = RPMI 5 mM glucose + 10% FBS, 46.1 µM
[23] = RPMI 5 mM glucose + 10% dialyzed FBS, 0.000781 µM
[24] = RPMI 5 mM glucose + 10% dialyzed FBS, 0.00234 µM
[25] = RPMI 5 mM glucose + 10% dialyzed FBS, 0.00702 µM
[26] = RPMI 5 mM glucose + 10% dialyzed FBS, 0.0211 µM
[27] = RPMI 5 mM glucose + 10% dialyzed FBS, 0.0632 µM
[28] = RPMI 5 mM glucose + 10% dialyzed FBS, 0.19 µM
[29] = RPMI 5 mM glucose + 10% dialyzed FBS, 0.569 µM
[30] = RPMI 5 mM glucose + 10% dialyzed FBS, 1.71 µM
[31] = RPMI 5 mM glucose + 10% dialyzed FBS, 5.12 µM
[32] = RPMI 5 mM glucose + 10% dialyzed FBS, 15.4 µM
[33] = RPMI 5 mM glucose + 10% dialyzed FBS, 46.1 µM

Compound	cell viability [1] [%]	cell viability [2] [%]	cell viability [3] [%]	cell viability [4] [%]	cell viability [5] [%]	cell viability [6] [%]	cell viability [7] [%]	cell viability [8] [%]	cell viability [9] [%]	cell viability [10] [%]	cell viability [11] [%]	cell viability [12] [%]	cell viability [13] [%]	cell viability [14] [%]	cell viability [15] [%]	cell viability [16] [%]	cell viability [17] [%]	cell viability [18] [%]	cell viability [19] [%]	cell viability [20] [%]	cell viability [21] [%]	cell viability [22] [%]	cell viability [23] [%]	cell viability [24] [%]	cell viability [25] [%]	cell viability [26] [%]	cell viability [27] [%]	cell viability [28] [%]	cell viability [29] [%]	cell viability [30] [%]	cell viability [31] [%]	cell viability [32] [%]	cell viability [33] [%]
CCOc1ccc(Nc2nc(-c3c(C)nc4ccccn34)cs2)cc1	98.8	105	111	89.9	38.5	22.3	20.4	21.1	20.1	23.5	22.9	114	107	112	94.8	46.8	14.5	15.6	13.3	15.7	14.3	10.9	116	94.7	96.5	110	91.1	26.8	24.3	20.7	19.1	19.7	18.8
O=C1Nc2ccc(Cl)cc2[C@@](C#CC2CC2)(C(F)(F)F)O1	65.1	74	86.3	95	86	88.4	88.8	80.2	88.9	96	93.4	71.8	69.8	82.2	84.9	89.6	84.6	84.4	87.8	85.9	91.6	63.7	62.1	70	89.5	81.2	82.7	78.9	85.6	81.5	81.8	84.8	54.7
CCc1c(C(=O)C(N)=O)c2c(OCC(=O)O)cccc2n1Cc1ccccc1	103	93.2	94.3	107	98.7	104	102	98.2	90.8	88.3	84.5	101	100	116	110	90.8	98.4	111	111	114	88.4	82.6	92.9	102	104	116	104	105	123	92.7	106	91.9	89.3
NC(=O)c1ncn([C@@H]2O[C@H](CO)[C@@H](O)[C@H]2O)n1	96.4	110	116	119	104	106	101	106	117	117	80.4	105	115	118	115	112	115	95.2	95.9	103	123	76.9	106	118	121	110	113	108	104	118	111	142	85.7
COC[C@@H](NC(C)=O)C(=O)NCc1ccccc1	117	116	118	118	112	119	124	105	100	120	111	115	111	118	123	99.7	115	99.9	121	90.3	103	116	103	101	102	96.7	99.4	131	106	105	90	86.7	96.9
C=CC1=C(C(=O)O)N2C(=O)[C@@H](NC(=O)/C(=N\O)c3csc(N)n3)[C@H]2SC1	80.6	81.9	20.4	86.1	87.3	98.9	89.8	91.1	83.1	93.4	95.7	87.5	107	10.3	104	96.7	109	102	108	121	98.7	106	83.1	86.6	27.4	108	94.5	107	97.1	101	116	112	101
Cc1cc(Nc2nc(N[C@@H](C)c3ncc(F)cn3)ncc2Cl)n[nH]1	93	97.4	109	114	103	106	102	99.4	61.2	21.7	19.4	120	129	114	110	112	126	110	26.2	19	17.1	20.3	–	–	–	–	–	–	–	–	–	–	–
Oc1ccc(/C=C/c2cc(O)cc(O)c2)cc1	99.5	113	106	104	115	110	112	121	118	97.6	10.4	105	107	85.6	100	103	108	111	94.9	101	22.7	5.07	114	115	97.2	98.4	100	92.8	103	103	111	73.7	7.98
OC[C@H]1O[C@H]([C@@H](F)[C@@H]1O)N2\C=C/C(=O)NC2=O	106	42.5	111	109	108	117	122	112	90.8	109	106	93.2	113	110	101	90.1	105	112	97	93.5	91.2	95.9	105	48.6	99.8	91.6	96.4	102	99.1	90.7	74	100	87.5
O=C1C[C@@H](c2ccc(O)cc2)Oc2cc(O)cc(O)c21	123	115	122	119	119	118	125	110	116	120	106	102	91.4	79.3	83.3	91.7	83	64.5	77.7	67.2	80.4	64	124	116	130	123	124	114	122	115	121	139	88.5
C[C@@H]1COCCN1C\2=C\C(=O)N\3CC[C@H](N(CC4=CN=CC(=C4)Cl)C3=N2)C(F)(F)F	88	83.8	91.6	97.5	85.9	97.8	91.5	94	78.8	43.2	24.8	109	109	120	96.4	115	117	122	88.5	74.4	43.4	25.1	89.6	92.3	96.9	90.9	83.4	98.7	107	89.2	71.2	42.4	34.1
CCn1c(-c2nonc2N)nc2cncc(CNC3CCNCC3)c21	119	121	126	134	137	131	129	109	96.1	60.7	30.8	101	125	124	143	144	152	120	61.5	58.3	18.9	15.8	123	126	113	131	118	115	137	110	100	45.2	22.7
CCC[C@H](N[C@@H](C)C(=O)N1[C@H](C(=O)O)C[C@@H]2CCCC[C@@H]21)C(=O)OCC	114	111	104	114	120	115	118	112	106	111	105	107	101	107	110	105	116	104	110	105	98.6	102	110	105	108	122	111	110	107	106	125	122	106
Oc1ccc(C2CCN(c3ccnc4ccccc34)CC2)cc1O	55.8	98.9	88.8	93.5	118	94.1	95.4	89.5	76.6	56.3	30.7	56.9	98	93.6	94.6	106	116	96.7	83	62.3	43.9	13.6	54.9	92.2	97.3	114	114	115	88.7	96.2	59.1	45.9	39.2
[NH2][Pt]([NH2])([Cl])[Cl]	93.8	96	94.5	95.2	107	99.4	92.2	89.6	79.1	70.9	62.1	82.9	105	101	93.2	102	98.8	118	71	70.9	65.1	52.4	85	85.3	88.1	89.5	86.8	97.8	88.1	74.3	65.9	55.3	51.8
CC(C)n1nc(-c2ccc3oc(N)nc3c2)c2c(N)ncnc21	87.7	73.7	63.3	56.4	44.5	38.5	31.8	29.9	23.7	18.6	3.79	106	101	70.3	62.4	59.3	42.4	38.3	29.1	25.1	4.15	3.72	78.2	78.8	70.9	54.8	52.6	44	39.7	36.1	28.6	15.8	4.72
